Test results reported in the NIST ThermoML archive (doi:10.1021/acs.jced.6b00350).
Numbers after ± are expanded uncertainties.

Details: Liquid, Hot wire method

FC(F)CC(F)(F)F [1,1,1,3,3-pentafluoropropane]
Details | thermal conductivity [W/m/K]
183.14 K, 5877 kPa | 0.1234 ± 0.0016
183.14 K, 70492 kPa | 0.1338 ± 0.0017
183.14 K, 70493 kPa | 0.134 ± 0.0017
183.15 K, 12341 kPa | 0.1246 ± 0.0016
183.15 K, 18865 kPa | 0.1257 ± 0.0016
183.15 K, 25402 kPa | 0.1266 ± 0.0016
183.16 K, 12323 kPa | 0.1246 ± 0.0016
183.16 K, 18832 kPa | 0.1258 ± 0.0016
183.16 K, 25441 kPa | 0.1268 ± 0.0016
183.16 K, 32517 kPa | 0.1281 ± 0.0016
183.17 K, 32553 kPa | 0.1282 ± 0.0016
183.18 K, 63248 kPa | 0.1329 ± 0.0017
183.19 K, 63254 kPa | 0.133 ± 0.0017
183.25 K, 54977 kPa | 0.1312 ± 0.0017
183.25 K, 54980 kPa | 0.1317 ± 0.0017
183.29 K, 47629 kPa | 0.13 ± 0.0016
183.3 K, 47628 kPa | 0.1305 ± 0.0016
183.34 K, 39964 kPa | 0.1291 ± 0.0016
183.34 K, 39965 kPa | 0.1291 ± 0.0016
183.5 K, 279 kPa | 0.1222 ± 0.0015
183.5 K, 290 kPa | 0.1225 ± 0.0015
183.5 K, 5883 kPa | 0.1234 ± 0.0016
183.5 K, 12421 kPa | 0.1245 ± 0.0016
183.5 K, 70475 kPa | 0.1338 ± 0.0017
183.5 K, 70484 kPa | 0.1336 ± 0.0017
183.51 K, 5882 kPa | 0.1233 ± 0.0016
183.51 K, 12360 kPa | 0.1246 ± 0.0016
183.51 K, 18836 kPa | 0.1258 ± 0.0016
183.51 K, 18859 kPa | 0.1258 ± 0.0016
183.51 K, 25404 kPa | 0.1269 ± 0.0016
183.51 K, 25455 kPa | 0.1269 ± 0.0016
183.51 K, 32519 kPa | 0.1282 ± 0.0016
183.51 K, 32578 kPa | 0.1281 ± 0.0016
183.54 K, 63251 kPa | 0.133 ± 0.0017
183.55 K, 63252 kPa | 0.1329 ± 0.0017
183.62 K, 54975 kPa | 0.1314 ± 0.0017
183.66 K, 47626 kPa | 0.1304 ± 0.0016
183.67 K, 47632 kPa | 0.1303 ± 0.0016
183.71 K, 39948 kPa | 0.129 ± 0.0016
183.71 K, 39959 kPa | 0.1291 ± 0.0016
183.88 K, 5875 kPa | 0.1233 ± 0.0016
183.88 K, 18828 kPa | 0.1257 ± 0.0016
183.88 K, 18858 kPa | 0.1257 ± 0.0016
183.88 K, 25416 kPa | 0.1267 ± 0.0016
183.88 K, 32497 kPa | 0.1281 ± 0.0016
183.88 K, 70464 kPa | 0.1338 ± 0.0017
183.89 K, 5878 kPa | 0.1233 ± 0.0016
183.89 K, 12374 kPa | 0.1246 ± 0.0016
183.89 K, 12395 kPa | 0.1244 ± 0.0016
183.89 K, 25431 kPa | 0.1268 ± 0.0016
183.89 K, 32541 kPa | 0.1281 ± 0.0016
183.89 K, 70475 kPa | 0.1341 ± 0.0017
183.9 K, 282 kPa | 0.1223 ± 0.0015
183.9 K, 287 kPa | 0.1222 ± 0.0015
183.93 K, 63243 kPa | 0.1325 ± 0.0017
183.93 K, 63247 kPa | 0.1328 ± 0.0017
184.01 K, 54967 kPa | 0.1313 ± 0.0017
184.01 K, 54970 kPa | 0.1314 ± 0.0017
184.06 K, 47633 kPa | 0.1303 ± 0.0016
184.06 K, 47634 kPa | 0.13 ± 0.0016
184.1 K, 39951 kPa | 0.129 ± 0.0016
184.1 K, 39957 kPa | 0.129 ± 0.0016
201.76 K, 4752 kPa | 0.1207 ± 0.0015
201.76 K, 4760 kPa | 0.1207 ± 0.0015
201.78 K, 10055 kPa | 0.1218 ± 0.0015
201.78 K, 10078 kPa | 0.1219 ± 0.0015
201.81 K, 15810 kPa | 0.1231 ± 0.0016
201.85 K, 253 kPa | 0.1197 ± 0.0015
201.86 K, 245 kPa | 0.1197 ± 0.0015
